Positions of bridges follow the written chain, without caps; N, C: chain ends. Non-standard residues stand in square brackets, D forms with d. Residues, ends and D or L forms follow the SMILES beside them. Groups on a side chain read outwards from the residue. Triazole bridges read from a SMILES are 1,4-linked. *: point of attachment. DOTA = O=C(O)CN1CCN(CC(=O)O)CCN(CC(=O)*)CCN(CC(=O)O)CC1; Lys(N3) = [N-]=[N+]=NCCCC[CH](N)C(=O)O; Nle = CCCC[CH](N)C(=O)O; Pra = C#CC[CH](N)C(=O)O; PEG2 = NCCOCCOCCC(=O)O

The values that follow come from patent US11576987B2, “Compositions and methods of treating melanoma” (UNIVERSITY OF IOWA RESEARCH FOUNDATION, priority 2016, dated 2023).

Data set [1] concerns MCR1 expression. The data set is described as follows: Pharmacological enhancement of MCR1 expression in human melanoma cells by drug incubation. Format: cell-based. As to conditions: for MCR1 expression: metastatic melanoma cells. The text has this: Melanoma if detected early can be cured by surgery, but metastatic melanoma is lethal. New therapies (e.g., immunotherapy; BRAF inhibition, BRAFi) and combinations extend life, but low response rates, acquired drug resistance, and serious side effects are major challenges to improving outcomes for disseminated disease (5 y survival 17%). Peptide-based radionuclide therapy targeted to the melanocortin-receptor type 1 (MCR1-RT) has long been considered a promising alternative; and MCR1-RT has achieved complete responses in mouse models (B16). However, MCR1 expression is heterogeneous/low in human melanoma, and as a result, no previous MCR1-RT study has employed successfully human melanoma cell xenografts. […] This introduces innovative Pb-specific chelator combined with a “click-cyclized” peptide (PSC-C-MCR1) to improve tumor:kidney ratio of radionuclide uptake 7-fold. An effective therapy for metastatic melanoma is developed that combines MCR1-RT with pharmacological agents (PBA; BRAFi/MEKi; HDACi) that enhance MCR1 expression.
Melanoma is the fastest growing cancer incidence in the United States. Surgery combined with radiation can be curative at early stages. However, metastatic melanoma is almost uniformly fatal (5-yr survival 17%). Recent breakthrough targeted MAPKi therapies (e.g., BRAFi) and immunotherapies (e.g., PD-1 inhibitors) have improved outcomes, but low response rates, acquired drug resistance, and adverse side effects limit quality of life for metastatic melanoma patients. For example, approval of immune-checkpoint inhibitor ipilimumab was based on an improvement in overall survival of only 3.7 months (overall response <15%). Combination immunotherapies have improved response (up to 61%), but grade 3/4 adverse events (up to 55%) often lead to therapy discontinuation (up to 36%). For targeted therapies, BRAF inhibitor vemurafenib was approved based on overall survival at 6 months of 84% vs 64% in the control arm (dacarbazine). Combining BRAFi with MEK inhibitors (MEKi) has led to modest improvements, yet recurrence is virtually inevitable. The mechanisms of acquired drug resistance are complex, and include altered/alternative oncogenic pathways; tumor heterogeneity; and enhanced DNA repair. Melanocortin-receptor type 1 targeted radionuclide therapy (MCR1-RT) has long been considered a promising alternative treatment for melanoma; and MCR1-targeted α-particle therapy (^212Pb) has achieved complete responses in mice bearing mouse (B16) tumors that highly express MCR1. However, these studies have been confined primarily to mouse melanoma (B16) cells because MCR1 expression is heterogeneous/low in human melanoma.
Combination therapies for metastatic melanoma are emerging as common practice (e.g., BRAFi plus MEK; and combination immunotherapies), but melanoma almost invariably develops resistance. MCR1-RT has long been considered a promising alternative, but previous therapy studies have been limited to the use of B16 mouse melanoma cells that highly express the MCR1 protein, because native MCR1 expression in human melanoma is heterogeneous/low.

The test system of data set [2] is MC1R expression. Nature of the data set: Real-time PCR analysis of MC1R expression in melanoma cells. Format: cell-based, human. Conditions: substantiated by flow cytometry and radiopeptide binding. On the procedure: FIG. 10. Real-time PCR analysis of MC1R expression in A2058 and MEWO melanoma cells. A2058 cells were exposed to BRAFi GSK2118436, MEKi GSK1120212 and HDACi PBA for 24 h. Similarly, MEWO cells were treated with PBA and SAHA. Total RNA was isolated and reverse transcripted to cDNA. Real-time PCR was performed using 50 ng of each cDNA sample with labeled primer VIC-MC1R and FAM-NADPH. mRNA fold changes were calculated by ΔΔCt method and expressed as (n=3; Mean±SEM).
qPCR measurements are included to measure the change in MCR1 mRNA with changes in the concentration and incubation time for each drug and combinations (FIG. 10). These experiments are carried out as in FIG. 10 according to manufacturers' protocols, cells are seeded into 6-well plates until ˜80% confluent. After drug treatments, total RNA is isolated (Qiagen RNeasy Mini Kit). 1 μg of total RNA from each cell sample is used for reverse transcription using a high capacity reverse transcription kit (Applied Biosystem). cDNA samples are kept at −80° C. until use. Upon use, cDNA templates are employed in the qRT-PCR using a Taqman Gene Expression Assay for human MC1R (Assay ID: Hs00267167_s1). Human 18S (Assay ID: Hs99999901_s1) and human GAPDH (Assay ID: Hs03929097_g1) are used as housekeeping gene controls. […] Reactions are carried out in Applied Biosystem 7900HT. mRNA level is calculated by comparative ΔΔCt method.
Background: In qPCR the cycle at which signal appears reflects the starting amount.

Data set [3] is described as follows: Tumor and kidney accumulation of click cyclized MCR1 peptide in mouse studies. In kind it is in vivo. As to conditions: kidney, iv, 90 min. post i.v. injection. The text has this:
(§1) The peptide backbone selected for the proposed investigation is based on a variant that was introduced previously with the addition of new evidence for improved internalization with the inclusion of a short polyethylene glycol linker between the chelator and the peptide backbone (FIG. 17). […] This peptide performance represents a 7-fold improvement in tumor:kidney ratio compared to the Re-cyclized peptide used previously. The use of the Re-cyclized peptide is for comparison to the previously published alpha-particle MCR1-targeted therapy study (using B16 mouse melanoma tumors). (Leachman S A, Cassidy P B, Chen S C, Curiel C, Geller A, Gareau D, Pellacani G, Grichnik J M, Malvehy J, North J, Jacques S L, Petrie T, Puig S, Swetter S M, Tofte S, Weinstock M A. Methods of Melanoma Detection. Cancer Treat Res. 2016; 167:51-105.) Thus, the DOTA-C-MCR1 (published previously) and new PSC-C-MCR1 peptides shown in FIG. 17 are used to take advantage of the observed improved tumor:kidney ratio.
(§2) Preliminary data support the hypothesis that co-injection of PBA with [^203Pb]MCR1-targeted peptides can reduce kidney accumulation of the radiopeptide (FIGS. 14A-B), while improving tumor accumulation in mice bearing human metastatic melanoma tumors (FIG. 14B imaging; FIGS. 15A-B therapy). […]

The subject of data set [4] is B16 mouse metastatic melanoma tumor model. The data set is described as above. In kind it is in vivo. As to conditions: i.v. injection.
Description: as §1, §2

The test system is the same in data set [5]. As to conditions: 60 m post injection; cited from earlier work.
In data set [6] the test system is BRAFi-resistant A375VR cells. The data set is described as follows: Clonogenic survival of BRAFi-resistant melanoma cells. In kind it is cell-based, human. Conditions: 5 μM vemurafenib in the absence of PBA. On the procedure: FIGS. 13A-13B. PBA treatment promotes cell death of BRAFi-resistant metastatic melanoma and upregulates MCR1 expression in a time dpe. (A) BRAFi-resistant A375VR cells were incubated with 5 μM vemurafenib in combination with ER-stress-relieving drug 4-PBA for up to 6 days. […] (B) Flow cytometry analysis of MCR1 expression in A2058 and A375 malignant melanoma cells. Cells were treated with 3 mmole 4-PBA for 4 h and 24 h (n=3). The treated and untreated (control) cells were stained with anti-MC1R-phycoerythrin (PE) monoclonal antibody conjugate. Fluorescence intensity was corrected by auto-fluorescence of cells without staining and data were expressed as relative fluorescence intensity (IF) (vs. control)±SD.
Accumulation of misfolded-proteins causes upregulation and detachment of ER resident protein GRP78 from ER sensors proteins—activating the unfolded protein response (UPR) and downstream signaling pathways (including autophagy). […] Thus, the potential for a pharmacological treatment that would sensitize BRAFi-resistant cells to BRAFi by reducing ER-stress was considered. BRAFi-resistant A375VR melanoma cells were incubated with BRAFi vemurafenib alone and in combination with ER-stress relieving PBA.

Data set [7] concerns metastatic melanoma. Conditions: patients, cited from earlier work.

Turning to `O=C(CCCCCCC(=O)Nc1ccccc1)NO` [Vorinostat], the “enhancement of MCR1 expression” value in data set [1] (human melanoma cells, incubation with drug) is on record as “up to 12 fold”. The “MCR1 expression by RT-PCR” value in data set [2] was “Enhanced expression of MCR1”.
In turn, `CCCCC(NC(C)=O)C(=O)NC1Cc2cn(nn2)CCCCC(C(=O)NC(CCCCNC(=O)CCOCCOCCNC(=O)CN2CCN(CC(=O)O)CCN(CC(=O)O)CCN(CC(=O)O)CC2)C(N)=O)NC(=O)C(Cc2c[nH]c3ccccc23)NC(=O)C(CCCNC(=N)N)NC(=O)C(Cc2ccccc2)NC(=O)C(Cc2c[nH]cn2)NC1=O` (stereo not shown) [[^68Ga]DOTA-C-MCR1, metal not drawn] (Ac-[Nle][Pra]HFRW[Lys(N3)]K([PEG2-DOTA])-NH2; triazole 2-7; configuration not given here) registered a tissue uptake at 1.5 h in data set [3] of less than 5 %ID/g. The “injected dose per gram (tumor)” value in data set [4] was “up to 16 % ID/g”. Besides, in data set [5], the “tumor:kidney ratio” value is recorded as 3.4.
For `O=C(c1ccc(F)c(F)c1Nc1ccc(I)cc1F)N1CC(O)([C@@H]2CCCCN2)C1` [cobimetinib], the MCR1 expression entry in data set [1] was “upregulate MCR1 expression”.
Same read-out and setting: next, `CC(C)(C)c1nc(-c2cccc(NS(=O)(=O)c3c(F)cccc3F)c2F)c(-c2ccnc(N)n2)s1` [dabrafenib]: “upregulate MCR1 expression”.
Turning to `CCCS(=O)(=O)Nc1ccc(F)c(C(=O)c2c[nH]c3ncc(-c4ccc(Cl)cc4)cc23)c1F` [vemurafenib], the MCR1 expression entry in data set [1] is “upregulate MCR1 expression”. Also, in data set [6], the clonogenic survival entry was “No change in clonogenic survival”. In addition, in data set [7] (approval trial), the “overall survival at 6 months” value was 84%. In addition, in data set [7] (metastatic melanoma), the “slowing of tumor progression” value is listed as “about 5.3 months”.
For ipilimumab: immune-checkpoint inhibitor, the “improvement in overall survival” value in data set [7] (basis of approval) is given as 3.7 months. The overall response in data set [7] is on record as less than 15%.

By tissue uptake is commonly meant the share of the injected amount in each gram of the tissue. Read a low tissue uptake as low uptake.
